Data on two compounds can be found in patent EP2818471A1, “Nitrogen bicyclic compounds as inhibitors for Scyl1 and Grk5” (Max-Planck-Gesellschaft zur Förderung der Wissenschaften …, priority 2013, dated 2014).

For assay [1], the system named is beta-TC6 cells. The assay is described as follows: Insulin release in high glucose medium, rat/mouse insulin ELISA. The class given is cell-based. The conditions noted are these: for activation at 5 µM / fold induction at 5 µM: Mus musculus, Beta-TC6, 2 h; for fold induction at 5 µM: high glucose (4.5 g/L). The protocol:
Cells were cultured overnight, washed with PBS and then treated with 5 µM of test compounds as well as non-inhibitor controls for 2 h in a high glucose (4.5 g/L) DMEM at 37°C and 5 % (v/v) CO2. Release of insulin was detected using a rat/mouse insulin ELISA.
After incubation, the supernatant of the beta-TC6 insulinoma cells was diluted 1:20, whereas the supernatants of the RIN-T2B-5AH were diluted 1:10. The insulin release was measured with rat/mouse insulin ELISA (Merck Millipore Darmstadt, Cat. # EZRMI-13K) by following the manufacture's protocol. The enzyme activity of the horseradish peroxidase of the immobilized biotinylated antibodies was monitored spectrophotometrically by the increased absorbency at 490 nm, and corrected by the absorbency at 610 nm.
Afterwards, the supernatant was analyzed for insulin using the rat/mouse insulin ELISA (Merck Millipore Darmstadt, Cat. # EZRMI-13K) by following the manufacture's protocol..
Cells were treated for 2 h in a high glucose (4.5 g/L) DMEM media at 37°C and 5 % (v/v) CO2. Insulin release was analyzed using the rat/mouse insulin ELISA.
In general terms: ELISA stands for enzyme-linked immunosorbent assay.

The subject of assay [2] is 3T3-L pre-adipocytes differentiated to matured adipocytes. The assay is described as follows: Insulin dependence of 2-NBDG uptake in matured adipocytes. The class given is cell-based. Particulars: compound added beside 10 µg/ml insulin, 1 h, 100 µM 2-NBDG; Figure 12. As for the experimental part:
To investigate if the 2-NBDG uptake of the inventive compound inhibitors of Scyl1 and GRK5 are insulin dependent, 3T3-L pre-adipocytes were differentiated to matured adipocytes. Afterwards, cells were starved for 4 h before they were washed and glucose free media supplied with 100 µM 2-NBDG, in the presence and absence of 10 µg/ml insulin and either Cpd 10 (Scyl1) of Cpd 1 (Grk5) was added for 1 h at 37 °C. Furthermore, as internal controls, samples of glucose free media or glucose free media with compound were measured (data not shown). Fluorescence was analyzed by flow cytometer (FACS Calibur, BD Bioscience, respectively a BD Accuri® C6 Flow Cytometer). For evaluation, cells were gated using the side- and forward scatter SSC/FSC and quantified by excited at 488 and detected at 533 nm (FL1).

Assay [3] relates to beta-TC6 cells. Put plainly: Insulin HTRF assay, relative activity Ar normalized to sunitinib. Particulars: Mus musculus, normalized to positive control sunitinib (5 µM = 100%), Table 10. The class given is cell-based. The gist of the method: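 Relative activity Ar was scaled between 0% and 100% controls, with sunitinib at 5 µM f.c. as reference. Insulin released by beta-TC6 cells was quantified by sandwich HTRF (Eu-cryptate/XL665 antibodies, 120 min RT). Cells had been seeded 24 or 48 h, then treated 2–4 h at 37°C in induction buffer, 0.5% DMSO.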
On the technique in general: In TR-FRET formats the signal depends on donor and acceptor labels being close together.

The next assay has as its system beta-TC6 cell system. The assay is described as follows: Comparison of insulin release with commercially available inhibitors, mouse/rat insulin ELISA. The class given is cell-based. Particulars: Mus musculus, Beta-TC6; 5µM, 2 h; DMSO = 0; Table 9. The protocol:
Based on literature references, several commercially available inhibitors were compared with compounds according to the invention. […] Cells were cultured for 24 h before treated with the inventive compounds and control inhibitors for 2 h at 37 °C and 5 % (v/v) CO2. Insulin in the supernatant was detected by mouse/rat insulin ELISA.

The subject of assay [4] is beta-TC6 cells. The assay is described as follows: Insulin release in high glucose medium, rat/mouse insulin ELISA. The class given is cell-based. The conditions noted are these: 2 h, high glucose (4.5 g/L).
The subject of another assay is C2C12 cells. Put plainly: 2-NBDG glucose uptake by flow cytometry. The conditions noted are these: for fold induction at 5 µM: Mus musculus, C2C12, 1 h, read-out: Ratio of 2-NBDG uptake.
Assay [5] concerns beta-TC6 cells. Put plainly: 2-NBDG glucose uptake by flow cytometry. The conditions noted are these: Mus musculus, Beta-TC6, 1 h, read-out: Ratio of 2-NBDG uptake. A general note: In flow cytometry, cells or beads pass a laser one at a time.
Description: (§1) Furthermore, as internal controls, samples of glucose free media, respectively glucose free media with test compound, were tested. Subsequently, cells were washed, trypsinized and harvested in ice-cold PBS before centrifuged at 1.6 x10^3 rpm at 4°C. Cells were analyzed by flow cytometry (FACS Calibur, BD Bioscience, respectively a BD Accuri® C6 Flow Cytometer).
(§2) To investigate the impact of the Grk5 inhibitors on Glucose uptake, cells were cultured 1 h in glucose free media supplied with 100 µM 2-NBDG at 37 °C and 5 % (v/v) CO2. Furthermore, as internal controls, samples of glucose free media, respectively glucose free media with test compounds, were measured. Fluorescence was analyzed by flow cytometer (FACS Calibur, BD Bioscience, respectively a BD Accuri® C6 Flow Cytometer).

Read-outs that look alike come from different tables or passages of the source.

Description for C2C12 cells: as §1, §2

Consider `NC(=O)c1ccc(-c2cnc3ccc(Cc4ccc(F)cc4)nn23)cc1` [compound 1, 4-[6-[(4-fluorophenyl)methyl]imidazo[1,2-b]pyridazin-3-yl]benzamide], for which the activation at 5 µM in the assay with beta-TC6 cells [1] (high glucose (4.5 g/L) DMEM, Example 9, Figure 6, ± SEM, read-out: increase of insulin release) turned out to be 42.8 ± 6.8%; with beta-TC6 cell system, 70.7%. The fold induction at 5 µM was 1.81 in the assay with beta-TC6 cells [1] (0 µM = 1, Table 7); 2.45 in the assay on C2C12 cells; 1.57 in the assay on beta-TC6 cells [5]. The “additional (insulin independent) increase” value in assay [2] came to 48.9 ± 7.2%. The Emax – broadly, the maximal effect, on the per cent scale that the assay sets – with beta-TC6 cells [3] was 20 to 50%. The same compound displayed a fold induction at 2 µM in the assay with beta-TC6 cells [4] (0 µM = 1, Table 7) of 1.24. Moreover, in the assay on beta-TC6 cells [4] (0 µM = 1, Table 7), the fold induction at 10 µM was 2.03. Further, the “uptake of 2-NBDG compared with negative control background” value in the assay with C2C12 cells (C2C12, 1 h compound treatment, Figure 10) is “significantly increased uptake of 2-NBDG”.

On to `COc1cc(-c2ccc3ncc(-c4cccnc4)n3n2)cc(OC)c1OC` [compound 10, 3-(3-pyridyl)-6-(3,4,5-trimethoxyphenyl)imidazo[1,2-b]pyridazine], for which, in the assay with beta-TC6 cells [1] (5 µM, 2 h, high glucose (4.5 g/L) DMEM, Example 4, Figure 2), the “increase of insulin release” value is given as 60.2 ± 8.9%. The activation at 5 µM turned out to be 60.2 ± 8.9% in the assay on beta-TC6 cells [1] (high glucose (4.5 g/L) DMEM, Example 4, Figure 2, read-out: increase of insulin release) and 89.8% in the assay with beta-TC6 cell system. The fold induction at 5 µM in the assay on beta-TC6 cells [1] (0 µM = 1, Table 3) came out at 3.04; with C2C12 cells, 1.55; in the assay with beta-TC6 cells [5], 1.14. In addition, in assay [2], the “additional (insulin independent) increase” value came out at 18.2 ± 3.5%. In the assay with beta-TC6 cells [3], this compound yielded an Emax of 20 to 50%. Also, the fold induction at 2 µM in the assay on beta-TC6 cells [4] (0 µM = 1, Table 3) is 1.66. In the assay with beta-TC6 cells [4] (0 µM = 1, Table 3), this compound displayed a fold induction at 10 µM of 2.68.
